According to paper PMC5927803 (Pharmacology Research & Perspectives, 2018):
Where “and” joins values, the source holds several entries; their conditions need not be identical. Equal entries are not always repeated. Where two headings read alike, the source gives them in different places.

How the values were obtained:
[1] = molecular target: T1, hM3 mAChR (Homo sapiens, UniProt P20309); details: cited from earlier work
[2] = molecular target: T2, cM5 mAChR (Pan troglodytes, UniProt Q5IS53); experiment: Inhibition of agonist-stimulated calcium mobilization; type: cell-based, chimpanzee
T2 sequence (Q5IS53 1-532): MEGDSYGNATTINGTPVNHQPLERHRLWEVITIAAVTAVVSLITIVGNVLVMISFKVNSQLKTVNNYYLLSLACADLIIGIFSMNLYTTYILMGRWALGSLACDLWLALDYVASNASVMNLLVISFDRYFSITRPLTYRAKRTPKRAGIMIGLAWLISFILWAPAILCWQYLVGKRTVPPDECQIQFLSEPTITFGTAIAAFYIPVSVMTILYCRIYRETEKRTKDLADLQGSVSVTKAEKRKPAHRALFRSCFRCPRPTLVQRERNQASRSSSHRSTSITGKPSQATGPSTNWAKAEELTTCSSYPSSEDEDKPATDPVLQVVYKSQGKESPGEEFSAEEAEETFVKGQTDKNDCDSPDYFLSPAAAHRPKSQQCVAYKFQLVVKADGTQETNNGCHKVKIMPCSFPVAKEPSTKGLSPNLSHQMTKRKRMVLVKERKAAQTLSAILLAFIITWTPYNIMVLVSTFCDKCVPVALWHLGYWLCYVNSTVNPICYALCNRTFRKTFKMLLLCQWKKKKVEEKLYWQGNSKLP

[3] = system: human isolated bronchial tissue; details: human bronchus, carbachol; cited from earlier work
[4] = molecular target: T3, hM2 mAChR (Homo sapiens, UniProt P08172); details: cited from earlier work
T3 sequence (P08172 1-466): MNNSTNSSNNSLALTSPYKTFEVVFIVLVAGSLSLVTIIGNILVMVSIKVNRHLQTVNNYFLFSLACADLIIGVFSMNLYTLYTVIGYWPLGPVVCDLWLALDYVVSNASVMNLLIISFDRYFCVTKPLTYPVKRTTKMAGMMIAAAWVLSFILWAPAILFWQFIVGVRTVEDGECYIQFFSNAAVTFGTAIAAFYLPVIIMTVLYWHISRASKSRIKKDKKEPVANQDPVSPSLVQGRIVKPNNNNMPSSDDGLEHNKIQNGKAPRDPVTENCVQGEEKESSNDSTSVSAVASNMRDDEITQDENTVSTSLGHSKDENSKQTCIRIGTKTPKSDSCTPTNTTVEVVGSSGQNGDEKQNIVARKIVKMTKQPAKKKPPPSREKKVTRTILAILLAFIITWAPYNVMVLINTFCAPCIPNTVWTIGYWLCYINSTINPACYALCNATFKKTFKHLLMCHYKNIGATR

[5] = system: rat isolated tracheal tissue; experiment: Antagonism of ACh-evoked contraction: potency and offset time
[6] = molecular target: T4, hM1 mAChR (Homo sapiens, UniProt P11229); experiment: Inhibition of agonist-stimulated calcium mobilization; type: cell-based
T4 sequence (P11229 1-460): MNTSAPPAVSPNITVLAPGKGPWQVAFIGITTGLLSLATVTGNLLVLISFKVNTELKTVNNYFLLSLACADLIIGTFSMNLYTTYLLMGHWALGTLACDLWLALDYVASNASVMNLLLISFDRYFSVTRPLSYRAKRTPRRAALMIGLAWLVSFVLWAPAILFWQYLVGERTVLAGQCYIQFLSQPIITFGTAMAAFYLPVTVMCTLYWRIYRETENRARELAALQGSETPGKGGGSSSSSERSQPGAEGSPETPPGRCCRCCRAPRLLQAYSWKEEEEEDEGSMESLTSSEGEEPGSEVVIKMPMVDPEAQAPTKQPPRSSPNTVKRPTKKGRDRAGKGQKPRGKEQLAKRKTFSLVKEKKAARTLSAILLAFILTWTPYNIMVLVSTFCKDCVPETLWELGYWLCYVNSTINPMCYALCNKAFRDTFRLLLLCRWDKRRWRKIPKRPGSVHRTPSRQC

[7] = molecular target: T5, hM4 mAChR (Homo sapiens, UniProt P08173); experiment: Competition radioligand binding, [^3H]NMS
T5 sequence (P08173 1-479): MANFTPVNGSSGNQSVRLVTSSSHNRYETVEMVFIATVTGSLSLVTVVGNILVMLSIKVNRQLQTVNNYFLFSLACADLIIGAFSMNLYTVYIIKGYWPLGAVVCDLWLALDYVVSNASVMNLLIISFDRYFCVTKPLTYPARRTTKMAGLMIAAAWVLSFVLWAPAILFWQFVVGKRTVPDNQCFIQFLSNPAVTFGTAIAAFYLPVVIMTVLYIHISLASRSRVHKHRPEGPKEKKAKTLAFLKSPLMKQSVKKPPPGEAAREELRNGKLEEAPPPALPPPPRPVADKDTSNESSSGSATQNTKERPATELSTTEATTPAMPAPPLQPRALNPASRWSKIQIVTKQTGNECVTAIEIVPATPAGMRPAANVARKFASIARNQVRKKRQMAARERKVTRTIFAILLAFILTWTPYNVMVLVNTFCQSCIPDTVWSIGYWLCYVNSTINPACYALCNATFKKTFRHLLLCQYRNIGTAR

[8] = molecular target: T1, hM3 mAChR; experiment: Reversibility of antagonism of ACh-induced calcium mobilization, CHO-K1 cells; type: cell-based
[9] = molecular target: T3, hM2 mAChR; experiment: Inhibition of agonist-stimulated [^35S]GTPγS binding, CHO-K1 membranes; type: biochemical; details: absence of agonist
[10] = system: panel of 81 receptors, enzymes, and channels; experiment: Off-target panel screen; type: binding; details: 1 μmol L^−1
[11] = molecular target: T1, hM3 mAChR; experiment: Inhibition of agonist-stimulated calcium mobilization; type: cell-based
[12] = system: COPD patients; details: nebulized, once‐daily dosing; cited from earlier work
[13] = system: bronchoconstrictor response to ACh or methacholine (MCh); details: dogs, inhalation dosing; cited from earlier work
[14] = molecular target: Guinea Pig H1 (central) (Cavia porcellus, UniProt P31389); experiment: Off-target panel radioligand binding; details: read-out: % Inhibition Specific Binding (1 µM)
Chain of Guinea Pig H1 (central) (P31389 whole entry): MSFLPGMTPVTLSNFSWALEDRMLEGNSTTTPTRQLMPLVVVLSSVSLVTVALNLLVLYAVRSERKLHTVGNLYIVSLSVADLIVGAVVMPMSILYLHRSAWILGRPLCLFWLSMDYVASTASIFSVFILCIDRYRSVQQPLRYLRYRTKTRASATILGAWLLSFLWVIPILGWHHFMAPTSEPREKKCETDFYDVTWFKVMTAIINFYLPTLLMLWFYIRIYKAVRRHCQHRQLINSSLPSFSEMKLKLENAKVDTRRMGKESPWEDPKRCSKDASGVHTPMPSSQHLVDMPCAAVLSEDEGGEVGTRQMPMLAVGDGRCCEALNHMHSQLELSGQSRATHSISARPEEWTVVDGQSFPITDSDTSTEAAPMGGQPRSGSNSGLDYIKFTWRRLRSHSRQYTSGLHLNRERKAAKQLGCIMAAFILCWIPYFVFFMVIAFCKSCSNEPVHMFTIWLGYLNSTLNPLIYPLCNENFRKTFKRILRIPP

[15] = molecular target: T6, hM5 mAChR (Homo sapiens, UniProt P08912); experiment: Competition radioligand binding, [^3H]NMS
T6 sequence (P08912 1-532): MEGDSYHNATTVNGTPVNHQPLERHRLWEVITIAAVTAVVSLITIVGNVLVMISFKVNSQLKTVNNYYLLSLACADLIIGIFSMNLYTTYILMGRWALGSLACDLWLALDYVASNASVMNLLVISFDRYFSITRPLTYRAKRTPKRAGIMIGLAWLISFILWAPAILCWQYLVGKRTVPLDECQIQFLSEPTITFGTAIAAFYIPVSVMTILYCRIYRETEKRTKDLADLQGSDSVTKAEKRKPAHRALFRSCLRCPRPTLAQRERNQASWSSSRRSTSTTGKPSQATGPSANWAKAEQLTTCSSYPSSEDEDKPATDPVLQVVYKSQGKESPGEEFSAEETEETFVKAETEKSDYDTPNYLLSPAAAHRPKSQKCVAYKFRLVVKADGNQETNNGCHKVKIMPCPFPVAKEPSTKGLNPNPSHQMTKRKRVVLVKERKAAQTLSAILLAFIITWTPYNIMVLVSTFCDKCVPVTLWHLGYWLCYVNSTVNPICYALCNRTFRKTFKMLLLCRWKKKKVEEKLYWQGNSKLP

[16] = molecular target: T1, hM3 mAChR; experiment: Saturation radioligand binding
[17] = molecular target: T6, hM5 mAChR; experiment: Saturation radioligand binding
[18] = molecular target: T5, hM4 mAChR; experiment: Saturation radioligand binding
[19] = molecular target: T7, hM4‐Gα16 mAChR (Homo sapiens, UniProt P08173); experiment: Inhibition of agonist-stimulated calcium mobilization; type: cell-based
T7 sequence (P08173 1-479): T5 sequence (P08173 1-479)

[20] = molecular target: T4, hM1 mAChR; experiment: Competition radioligand binding, [^3H]NMS
[21] = molecular target: cloned human 5‐HT4(C) receptors (Homo sapiens, UniProt Q13639); experiment: 5-HT4 agonist assay; type: cell-based
Chain of cloned human 5‐HT4(C) receptors (Q13639 1-380 isoform Q13639-4): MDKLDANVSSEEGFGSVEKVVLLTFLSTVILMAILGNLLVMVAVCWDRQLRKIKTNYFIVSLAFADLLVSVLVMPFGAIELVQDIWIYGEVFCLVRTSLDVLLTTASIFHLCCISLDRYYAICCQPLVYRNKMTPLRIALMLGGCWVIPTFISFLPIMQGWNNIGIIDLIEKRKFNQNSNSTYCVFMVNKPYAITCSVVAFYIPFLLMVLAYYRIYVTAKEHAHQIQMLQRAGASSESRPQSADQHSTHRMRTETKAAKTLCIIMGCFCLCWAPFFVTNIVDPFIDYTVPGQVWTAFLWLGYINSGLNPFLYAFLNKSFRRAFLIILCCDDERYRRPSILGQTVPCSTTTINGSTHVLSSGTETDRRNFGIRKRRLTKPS

[22] = system: human isolated bronchial tissue; experiment: Antagonism of carbachol-evoked contraction: potency and offset time; details: superfusion washout, 10‐100 nmol·L^−1, 1 μmol L^−1 CCh, 10 hours perfusion
[23] = molecular target: T3, hM2 mAChR; experiment: Association and dissociation binding kinetics; details: 37°C
[24] = system: bronchoconstrictor response to ACh or methacholine (MCh); details: rats, inhalation dosing; cited from earlier work
[25] = molecular target: T4, hM1 mAChR; experiment: Saturation radioligand binding
[26] = molecular target: histamine H1 receptor (Cavia porcellus, UniProt P31389); experiment: H1 radioligand binding, concentration-response; details: selectivity hM3 over H1
Chain of histamine H1 receptor (P31389 whole entry): as the sequence (P31389 whole entry) above

[27] = system: guinea pig isolated trachea; experiment: Inhibition of EFS contraction: potency and offset time; details: IC90 concentration, washout
[28] = molecular target: T1, hM3 mAChR; experiment: Association and dissociation binding kinetics
[29] = molecular target: T1, hM3 mAChR; experiment: Competition radioligand binding, [^3H]NMS; details: hM3 pKI, [^3H]NMS competition, CHO-K1 membranes, 37°C; mean ± SD
[30] = tested alone in cells expressing mAChRs

T1 sequence (P20309 whole entry): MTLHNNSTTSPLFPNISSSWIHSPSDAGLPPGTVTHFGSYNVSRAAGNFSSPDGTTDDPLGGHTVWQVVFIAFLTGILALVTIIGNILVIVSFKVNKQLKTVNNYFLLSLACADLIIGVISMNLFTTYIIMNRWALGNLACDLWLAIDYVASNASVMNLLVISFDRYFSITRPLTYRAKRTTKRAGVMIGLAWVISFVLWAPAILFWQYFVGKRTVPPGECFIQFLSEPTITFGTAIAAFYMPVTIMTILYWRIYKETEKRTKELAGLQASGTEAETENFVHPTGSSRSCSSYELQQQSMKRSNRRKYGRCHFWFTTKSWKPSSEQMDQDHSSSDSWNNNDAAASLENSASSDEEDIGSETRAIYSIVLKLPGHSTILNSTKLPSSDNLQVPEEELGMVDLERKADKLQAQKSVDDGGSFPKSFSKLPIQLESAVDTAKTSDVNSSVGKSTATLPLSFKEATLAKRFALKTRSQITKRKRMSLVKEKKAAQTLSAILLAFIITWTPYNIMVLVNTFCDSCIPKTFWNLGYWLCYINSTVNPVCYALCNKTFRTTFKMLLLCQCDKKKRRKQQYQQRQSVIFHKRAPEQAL

Compound: CC(C)[N+]1(C)[C@@H]2CC[C@H]1C[C@@H](OC(=O)C(CO)c1ccccc1)C2 (stereo partly drawn) [Ipratropium, reference compound]
- dissociation from hM3 receptors [1]: dissociate rapidly
- Ki [2]: 0.191 nM
- nature of antagonism [3]: surmountable antagonism
- dissociation from hM2 receptors [4]: dissociate rapidly
- pA2 ([5]; ACh contraction, surmountable antagonist): 9.2 ± 0.1

Compound: CN(CCN1CCC(OC(=O)Nc2ccccc2-c2ccccc2)CC1)C(=O)c1ccc(CN2CCC(C(N)=O)CC2)cc1 [Revefenacin, biphenyl‐2‐ylcarbamic acid 1‐(2‐{[4‐(4‐carbamoylpiperidin‐1‐ylmethyl)benzoyl]methylamino}ethyl)piperidin‐4‐yl ester]
- Ki [6]: 0.126 nM
- Ca^2+ response when tested alone (agonist activity), hM1 [6, 30]: no Ca^2+ response
- Ki ([7]; hM4 KI, [^3H]NMS competition, from IC50 by Cheng and Prusoff): 0.56 nM
- Ki ([7]; hM4 pKI, [^3H]NMS competition, CHO-K1 membranes, 37°C, mean ± SD): 0.55 nM
- Kb [8]: 0.0933 nM
- stimulation of [^35S]GTPγS binding at hM2 (agonist activity) [9]: did not stimulate
- activity at a majority of the targets [10]: < 75%
- Ki [11]: 0.0955 nM
- Ca^2+ response when tested alone (agonist activity), hM3 [11, 30]: no Ca^2+ response
- duration of bronchodilation [12]: 24 h
- duration of bronchoprotective effect [13]: ≥ 24 h
- inhibition at 1 µM [14]: 87%
- Ki ([15]; hM5 KI, [^3H]NMS competition, from IC50 by Cheng and Prusoff): 6.7 nM
- Ki ([15]; hM5 pKI, [^3H]NMS competition, CHO-K1 membranes, 37°C, mean ± SD): 6.31 nM
- Kd [16]: 0.39 nM
- Ki [2]: 0.363 nM
- Ca^2+ response when tested alone (agonist activity), cM5 [2, 30]: no Ca^2+ response
- Kd [17]: 4.2 nM
- Kd [18]: 0.46 nM
- Ki [19]: 0.0112 nM
- Ca^2+ response when tested alone (agonist activity), hM4‐Gα16 [19, 30]: no Ca^2+ response
- Ki [20]: 0.417 nM
- EC50 [21]: 257 nM
- potency at 5‐HT4 receptor lower than Ki at the hM3 receptor ([21]; selectivity hM3 over 5-HT4): > 1400 fold
- offset t 1/2 [22]: > 10 h
- dissociation t 1/2 M2 [23]: 6.9 min
- duration of bronchoprotective effect [24]: ≥ 24 h
- Kd [25]: 1 nM
- offset t 1/2 ([5]; IC90 concentration, washout, time for response to recover by 50%): 13.3 h
- potency lower than that of tiotropium ([5]; from pKB): 4 fold
- potency greater than that of ipratropium ([5]; pKB vs pA2): 20 fold
- potency at histamine H1 receptor lower than Ki at the hM3 receptor [26]: > 2700 fold
- offset t 1/2 [27]: > 16 h
- Kd [28]: 0.0933 nM
- hM3 dissociation t 1/2 shorter than that of tiotropium [28]: 2.8 fold
- dissociation t 1/2 M3 ([28]; 37°C): 1.37 h
- Ki [29]: 0.2 nM and 0.178 nM

Compound: C[N+]1(C)[C@@H]2C[C@@H](OC(=O)C(O)(c3cccs3)c3cccs3)C[C@H]1[C@@H]1O[C@@H]12 [Tiotropium, reference compound]
- Ki [7]: 0.0204 nM
- Ki [15]: 0.0813 nM
- Ki [2]: 0.105 nM
- Ki [19]: 0.0617 nM
- nature of antagonism [3]: potent insurmountable antagonist
- offset t 1/2 [27]: > 20 h
